According to patent US8481732B2 (Incyte Corporation, priority 2009, dated 2013):

Molecular target: T1, histamine H4 receptor (Homo sapiens, UniProt Q9H3N8)
T1 construct: expressed in transfected cells; host or cells: HEK293SFM cells (membrane preparation)
Assay: H4 Membrane Binding Assay (3H-Histamine displacement)
Details: membranes of recombinant HEK293SFM cells, 10 nM 3H-Histamine, 1.5 hr at room temperature
Procedure, shortened: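 Membranes from HEK293SFM cells expressing human H4 (also human H1–H3, mouse H4), prepared in ice-cold 50 mM Tris-HCl pH 7.5. [3H]-histamine displacement, nonspecific binding defined with 1000× unlabeled ligand. Bound radioactivity separated on PEI-treated GF/B filters and measured by liquid scintillation counting.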

T1 sequence (Q9H3N8 whole entry): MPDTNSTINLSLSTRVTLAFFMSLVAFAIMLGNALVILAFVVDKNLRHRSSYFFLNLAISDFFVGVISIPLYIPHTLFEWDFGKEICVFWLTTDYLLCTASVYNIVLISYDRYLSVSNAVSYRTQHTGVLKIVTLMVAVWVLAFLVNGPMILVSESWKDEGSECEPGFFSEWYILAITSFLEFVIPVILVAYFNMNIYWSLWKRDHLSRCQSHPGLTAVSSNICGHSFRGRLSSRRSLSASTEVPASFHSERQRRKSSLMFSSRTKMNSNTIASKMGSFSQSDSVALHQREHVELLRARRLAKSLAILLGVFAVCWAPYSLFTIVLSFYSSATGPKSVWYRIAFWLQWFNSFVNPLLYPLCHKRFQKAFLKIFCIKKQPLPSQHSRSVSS

With `CN1CCN(c2nc(N)nc3cc(C(=O)NC(Cc4ccc(-c5ccccc5)cc4)c4nccs4)ccc23)CC1` (stereo not drawn) [Example 151, 2-amino-N-[2-biphenyl-4-yl-1-(1,3-thiazol-2-yl)ethyl]-4-(4-methylpiperazin-1-yl)quinazoline-7-carboxamide] the IC50 was 0.069 µM.
With `CN1CCN(c2cc(-c3ccc4c(c3)CN(C(=O)C3CCC3)CC4)nc(N)n2)CC1` [Example 3, 4-[2-(Cyclobutylcarbonyl)-1,2,3,4-tetrahydroisoquinolin-7-yl]-6-(4-methylpiperazin-1-yl)pyrimidin-2-amine] the IC50 was 0.17 µM.
`COC(=O)c1ccc(NC(=O)N2CCc3ccc(-c4cc(N5CCN(C)CC5)nc(N)n4)cc3C2)nc1` [Example 45, Methyl 6-({[7-[2-amino-6-(4-methylpiperazin-1-yl)pyrimidin-4-yl]-3,4-dihydroisoquinolin-2(1H)-yl]carbonyl}amino)nicotinate] showed an IC50 of 0.06 µM.
With `COc1cccc(Oc2cccc(CNC(=O)c3ccc4c(N5CCN(C)CC5)nc(N)nc4c3)c2)c1C#N` [Example 190, 2-Amino-N-[3-(2-cyano-3-methoxyphenoxy)benzyl]-4-(4-methylpiperazin-1-yl)quinazoline-7-carboxamide] the IC50 was 0.011 µM.
With `CC(C)[C@@H](C)NC(=O)N1CCc2ccc(-c3cc(N4CCN(C)CC4)nc(N)n3)cc2C1` [Example 98, 7-[2-Amino-6-(4-methylpiperazin-1-yl)pyrimidin-4-yl]-N-[(1R)-1,2-dimethylpropyl]-3,4-dihydroisoquinoline-2(1H)-carboxamide] the IC50 was 0.061 µM.
Compound `CN1CCN(c2nc(N)nc3cc(C(=O)N[C@@H](Cc4ccc(-c5cncc(C(F)(F)F)c5)cc4)C(=O)N(C)C)ccc23)CC1` [Example 161, 2-Amino-N-((1S)-2-(dimethylamino)-2-oxo-1-{4-[5-(trifluoromethyl)pyridin-3-yl]benzyl}ethyl)-4-(4-methylpiperazin-1-yl)quinazoline-7-carboxamide] has an IC50 of 0.031 µM.
For `CCO[C@H]1CCCC[C@H]1NC(=O)N1CCc2ccc(-c3cc(N4CCN(C)CC4)nc(N)n3)cc2C1` (relative stereo) [Example 85, 7-[2-Amino-6-(4-methylpiperazin-1-yl)pyrimidin-4-yl]-N-[(cis)-2-ethoxycyclohexyl]-3,4-dihydroisoquinoline-2(1H)-carboxamide], the IC50 was 0.057 µM.
In the case of `CN1CCN(c2cc(-c3ccc4c(c3)CN(C(=O)N[C@@H]3CCCC[C@@H]3OCC3CC3)CC4)nc(N)n2)CC1` (relative stereo) [Example 86], the IC50 is reported as 0.049 µM.
Compound `CN1CCN(c2nc(N)nc3cc(C(=O)NCc4cccc(OCc5cccc(C#N)c5)c4)ccc23)CC1` [Example 192, 2-amino-N-(3-(3-cyanobenzyloxy)benzyl)-4-(4-methylpiperazin-1-yl)quinazoline-7-carboxamide] has an IC50 of 0.0063 µM.
Work on `CC(Cc1ccc(OC2CCCC2)cc1)NC(=O)c1ccc2c(N3CCN(C)CC3)nc(N)nc2c1` (stereo not drawn) [Example 143, 2-Amino-N-{2-[4-(cyclopentyloxy)phenyl]-1-methylethyl}-4-(4-methylpiperazin-1-yl)quinazoline-7-carboxamide] yielded an IC50 of 0.037 µM.
`CN1CCN(c2cc(-c3ccc4c(c3)CN(c3ccc(C#N)cn3)CC4)nc(N)n2)CC1` [Example 16, 6-{7-[2-Amino-6-(4-methylpiperazin-1-yl)pyrimidin-4-yl]-3,4-dihydroisoquinolin-2(1H)-yl}nicotinonitrile] showed an IC50 of 0.048 µM.
In the case of `CN1CCN(c2cc(-c3ccc4c(c3)CN(c3ccc(C#N)c(F)c3)CC4)nc(N)n2)CC1` [Example 15, 4-{7-[2-Amino-6-(4-methylpiperazin-1-yl)pyrimidin-4-yl]-3,4-dihydroisoquinolin-2(1H)-yl}-2-fluorobenzonitrile], the IC50 is reported as 0.039 µM.
In the case of `COc1ccccc1-c1ccc(C[C@H](NC(=O)c2ccc3c(N4CCN(C)CC4)nc(N)nc3c2)C(=O)N(C)C)cc1` [Example 152, 2-Amino-N-{(1S)-2-(dimethylamino)-1-[(2′-methoxybiphenyl-4-yl)methyl]-2-oxoethyl}-4-(4-methylpiperazin-1-yl)quinazoline-7-carboxamide], the IC50 is reported as 0.01 µM.
Compound `COC(=O)[C@H](Cc1ccc(OC(C)C)cc1)NC(=O)c1ccc2c(N3CCN(C)CC3)nc(N)nc2c1` [Example 134, Methyl (2S)-2-({[2-amino-4-(4-methylpiperazin-1-yl)quinazolin-7-yl]carbonyl}amino)-3-(4-isopropoxyphenyl)propanoate] has an IC50 of 0.029 µM.
Compound `CCOC(=O)N1CCC(OC(=O)N2CCc3ccc(-c4cc(N5CCN(C)CC5)nc(N)n4)cc3C2)CC1` [Example 116, 1-(Ethoxycarbonyl)piperidin-4-yl 7-[2-amino-6-(4-methylpiperazin-1-yl)pyrimidin-4-yl]-3,4-dihydroisoquinoline-2(1H)-carboxylate] has an IC50 of 0.038 µM.
Compound `CN1CCN(c2cc(-c3ccc4c(c3)CN(C(=O)N3CCC(F)(F)CC3)CC4)nc(N)n2)CC1` [Example 104, 4-{2-[(4,4-Difluoropiperidin-1-yl)carbonyl]-1,2,3,4-tetrahydroisoquinolin-7-yl}-6-(4-methylpiperazin-1-yl)pyrimidin-2-amine] has an IC50 of 0.259 µM.
Work on `Cc1cc2c(cc1-c1cc(N3CCN(C)CC3)nc(N)n1)CN(C(=O)NC1CCCCC1)CC2` [Example 78, 7-[2-Amino-6-(4-methylpiperazin-1-yl)pyrimidin-4-yl]-N-cyclohexyl-6-methyl-3,4-dihydroisoquinoline-2(1H)-carboxamide] yielded an IC50 of 0.25 µM.
Compound `CN1CCN(c2nc(N)nc3cc(C(=O)NC(Cc4ccc5c(c4)OC(F)(F)O5)C(=O)N(C)C)ccc23)CC1` (single isomer, unassigned) [Example 145A] has an IC50 of 0.519 µM.
Compound `CC(NC(=O)c1ccc2c(N3CCN(C)CC3)nc(N)nc2c1)c1ccccc1` (stereo not drawn) [Example 24, 2-Amino-4-(4-methylpiperazin-1-yl)-N-(1-phenylethyl)quinazoline-7-carboxamide] has an IC50 of 0.565 µM.
With `CN1CCN(c2cc(-c3ccc4c(c3)CN(C(=O)Nc3ccc(Cl)cc3)CC4)nc(N)n2)CC1` [Example 8, 7-[2-Amino-6-(4-methylpiperazin-1-yl)pyrimidin-4-yl]-N-(4-chlorophenyl)-3,4-dihydroisoquinoline-2(1H)-carboxamide] the IC50 was 0.0132 µM.
`CC(C)OC(=O)N1CCC(OC(=O)N2CCc3ccc(-c4cc(N5CCN(C)CC5)nc(N)n4)cc3C2)CC1` [Example 68, 1-(Isopropoxycarbonyl)piperidin-4-yl 7-[2-amino-6-(4-methylpiperazin-1-yl)pyrimidin-4-yl]-3,4-dihydroisoquinoline-2(1H)-carboxylate] was tested, and the IC50 was 0.038 µM.
`CN1CCN(c2cc(-c3ccc4c(c3)CN(C(=O)NC35CC6CC(CC(C6)C3)C5)CC4)nc(N)n2)CC1` [Example 59, N-1-Adamantyl-7-[2-amino-6-(4-methylpiperazin-1-yl)pyrimidin-4-yl]-3,4-dihydroisoquinoline-2(1H)-carboxamide] gave an IC50 of 0.019 µM.
`CN1CCN(c2nc(N)nc3cc(C(=O)N[C@@H](Cc4ccc(OC(=O)Nc5cccc(Cl)c5)cc4)C(=O)N(C)C)ccc23)CC1` [Example 165, 4-[(2S)-2-({[2-Amino-4-(4-methylpiperazin-1-yl)quinazolin-7-yl]carbonyl}amino)-3-(dimethylamino)-3-oxopropyl]phenyl (3-chlorophenyl)carbamate] showed an IC50 of 0.016 µM.
Compound `CNC(=O)c1ccc(N2CCc3ccc(-c4cc(N5CCN(C)CC5)nc(N)n4)cc3C2)cn1` [Example 17, 5-{7-[2-Amino-6-(4-methylpiperazin-1-yl)pyrimidin-4-yl]-3,4-dihydroisoquinolin-2(1H)-yl}-N-methylpyridine-2-carboxamide] has an IC50 of 0.199 µM.
